Measured values from patent US5393786A, “Method for treating inflammation, ischemia-induced cell damage and muscular dystrophy” (priority 1993, dated 1995).
Where a name gives a salt, the structure may show the parent alone. Read-outs that look alike come from different tables or passages of the source.

Legend:
[1] = system: hippocampal CA1 pyramidal cell layer; assay: Stroke model in rats (four-vessel occlusion), hippocampal CA1 damage; settings: for Damage Score, Hippocampus: scale 0-3, mean ± SE
From the text: (§1) Strokes were produced in rats by occluding the four arteries that supply blood to the brain according to the following procedure. Male Wistar rats (250-280 g; Hilltop Laboratories, Scottsdale, Pa.) were anesthetized with metofane and placed into a stereotaxic instrument. A longitudinal incisio was made on the dorsal surface of the neck. The neck muscles were reflected to expose the dorsal surface of the spinal column. The two vertebral arteries were exposed where they pass through the first cervica vertebra. Both arteries were permanently occluded by the application of electrocautery. After coagulation of the vertebral arteries, the rat was removed from the stereotaxic instrument and the surgical wound was sutured. Two longitudinal incisions were then made on the ventral surface of the neck. The two common carotid arteries were exposed and dissected free from surrounding nerves and connective tissue. Reversible atraumatic clamps, fabricated mainly from silicon rubber tubing, were placed around each carotid artery in a manner such that the vessels were not traumatize or occluded. The clamps were externalized through the ventral neck incision. A suture was also placed through the neck dorsal to the carotids, esophagus and trachea, and tied loosely behind the neck. This suture is tied tightly at the time ischemia is induced in order to restrict collateral circulation reaching the brain through the dorsal muscles of the neck. The surgical wounds were then closed. After the surgery, the rats were allowed to recover for 24 hours (free access to water, but no food during this period).
(§2) On the day of testing, test compounds were administered at various times before stroke induction. Strokes (cerebral ischemia) were induced by tightening the clamps around the carotids, thereby stopping blood flow in the carotids. Rats in which strokes were successfully produced lost the righting reflex and became unresponsive to stimuli. Collateral circulatio through the dorsal neck muscles was then restricted by tightening the previously implanted suture. […] After 30 minutes of ischemia, the carotid clamps wer released, the neck suture was loosened, and blood flow to the brain was restored. Following the period of ischemia, the rats were allowed free access to food and water. Rats were again treated with test compounds at various times after the stroke. On the third day after the stroke the animals were sacrificed and their brains were removed, frozen and sectioned through the striatum and hippocampus. Sections were mounted on glass slides and stained with hematoxylin and eosin.
(§3) Two of the areas of the brain that are most susceptible to ischemia induce damage, both in rats and humans, are the CA1 pyramidal cell layer of the hippocampus and the striatal cell layer of the striatum. In animals that remain unresponsive for the 30 minute period of ischemia, the CA1 pyramidal cell layer and the striatal cell layer are completely destroyed. These layers of cells were examined microscopically in histological sections prepared from the hippocampus and striatum. Brain damage was rated according to the following scale:
(§4) 0=no damage, completely intact cell layer
(§5) 1=mild damage, onethird of cell layer dead
(§6) 2=moderate damage, twothirds of cell layer dead
(§7) 3=severe damage, complete destruction of cell layer
(§8) Damage in 10-12 sections from each brain was assessed in order to obtain a accurate estimate of damage. An average damage score was calculated for each treatment group. Scores from treated groups were compared statistically with scores from control groups which received only the vehicle used to suspend the compounds. The level of significance was determined using the Mann WhitneyU-test.

[2] = system: striatal cell layer of the striatum; assay: Stroke model in rats (four-vessel occlusion), striatal damage; type: in vivo, male Wistar rats; settings: scale 0-3, mean ± SE
From the text: as §1, §2, §3, §4, §5, §6, §7, §8

[3] = system: adjuvant-induced arthritis (uninjected hind paw); assay: Developing Adjuvant-Induced Arthritis Test in Rats; type: in vivo, male Lewis-Wistar rats; settings: po, 720 h, AUC days 16-30; for inhibition in vivo at 50 mg/kg: 50 mg/kg rat weight × 29, p.o. once daily
[4] = system: ischemia-induced cell damage caused by middle cerebral artery occlusion; assay: Middle Cerebral Artery Occlusion Stroke Model; type: in vivo, male spontaneously hypertensive rats; settings: for toxicity of higher doses (footnote ++): doses above 10/5 mg/kg i.v.
From the text: Strokes were also produced in rats by occluding the middle cerebral artery according to the following procedure. Male spontaneously hypertensive rats were housed in groups of three to four per cage and allowed free access to food and water. The animals were anesthetized with a mixture of 2.5% halothane and air. The anesthetized rats then underwent the following surgical procedure.
A femoral artery of each rat was cannulated to monitor mean arterial pressure and a jugular cannula was inserted in order to provide a means for administering test compounds intravenously. […] The ventral neck area and the area behind each animal's right eye were shaved and washed with antiseptic solution. The right common carotid artery was dissected free of connective tissue through a midline cervical incision and the vessel permanently occluded with a silk ligature. Next, a 1 cm incision perpendicular to, and bisecting a line between the lateral canthus of the right eye and the external auditory canal, was made to expose the temporalis muscle which was retracted and partially excised. Using a dissecting microscope, the right middle cerebral artery was exposed through a 2 mm burr hole drilled 2-3 mm rostral to the fusion of the zygomatic arch with a squamosal bone. Drilling was done under a continuous drip of a 0.9% saline solution to prevent heat injury of the underlying cortex. The dura was cut and retracted to expose the middle cerebral artery.
This artery was occluded in two ways. The first method of occlusion involved permanent cauterization of the artery so that blood flow through the artery was completely eliminated. The second method of occulsion was only temporary (lasting two hours) and involved clamping the artery with microaneurism clips. Test compounds were administered at various times before, during and after occlusion. Each animal's body temperature was maintained at 37° C. during testing using a rectal thermometer connected to a heating pad.
Twenty-four hours after tandem middle cerbral carotid artery occlusion, the test animals were sacrificed and their brains removed and frozen over dry ice. Coronal sections 20 microns thick were cut at half millimeter intervals in a cryostat at -20° C. and dried on a hot plate at 60° C. The sections were then stained with cresyl violet. […] A total infarct volume was then calculated using a computer program that summed all sectional areas measured multiplied by the interval thickness. The lower the infarcted volume obtained, the lower the amount of cell damage caused by the stroke. The level of significance was obtained using Student's "t-test".

[5] = 100 mg/kg orally, 2% acacia, time c (30 min pre, 4 h and 24 h postischemia), control 2.5 ± 0.3
[6] = 100 mg/kg orally, 2% acacia, time c (30 min pre, 4 h and 24 h postischemia), control 1.4 ± 0.3
[7] = 25 mg/kg rat weight × 29, p.o. once daily, read-out: % Inhibition of Uninjected Paw Volume Inflammation, Days 16-30
[8] = read-out: % Inhibition of Uninjected Paw Volume Inflammation, Days 16-30
[9] = 25 mg/kg orally, water, time a (15 min pre, 4 h and 24 h postischemia), control 2.5 ± 0.3
[10] = 100 mg/kg orally, 2% acacia, time c (30 min pre, 4 h and 24 h postischemia), control 2.7 ± 0.2
[11] = 100 mg/kg orally, water, time a (15 min pre, 4 h and 24 h postischemia), control 2.7 ± 0.2
[12] = Rattus norvegicus, read-out: % Inhibition of Uninjected Paw Volume Inflammation, Days 16-30, 25 mg/kg rat weight × 29, p.o. once daily
[13] = 50 mg/kg orally, 2% acacia, time c (30 min pre, 4 h and 24 h postischemia), control 2.73 ± 0.22
[14] = 50 mg/kg orally, 2% acacia, time c (30 min pre, 4 h and 24 h postischemia), control 2.71 ± 0.22
[15] = 100 mg/kg orally, 2% acacia, time a (15 min pre, 4 h and 24 h postischemia), control 2.9 ± 0.1
[16] = 100 mg/kg orally, 2% acacia, time a (15 min pre, 4 h and 24 h postischemia), control 2.4 ± 0.4

CC(C)(C)c1cc(CN2CCCC2)cc(C(C)(C)C)c1O.Cl [4-(1-pyrrolidinomethyl)-2,6-bis(1,1-dimethylethyl)phenol hydrochloride]
Damage Score, Hippocampus [1, 5]: 1.2 ± 0.5 | Damage Score, Striatum [2, 6]: 1.5 ± 0.4

CC(C)(C)c1cc(CN2CCOCC2)cc(C(C)(C)C)c1O [4-(4-morpholinylmethyl)-2,6-bis(1,1-dimethylethyl)phenol]
inhibition in vivo at 25 mg/kg [3, 7]: 40.6% | inhibition in vivo at 50 mg/kg [3, 8]: 71.1%

CCNC(C)c1cc(C(C)(C)C)c(O)c(C(C)(C)C)c1.Cl (stereo not drawn) [4-[1-(ethylamino)ethyl]-2,6-bis(1,1-dimethylethyl)phenol hydrochloride]
toxicity of higher doses (footnote ++) ([4]; temporary occlusion, 10% DMSO in saline): higher doses were toxic in this model | Infarct Volume ([4]; temporary occlusion, 10/5 mg/kg i.v. (per hour), 10% DMSO in saline, time d, control 106 ± 15): 92 ± 10 (mm)^3 | toxicity in stroke model (footnote ****) ([1]; 50 mg/kg orally, 2% acacia, time c, data on only 7 rats): data obtained on only 7 rats because of toxicity problems | Damage Score, Hippocampus ([1]; 50 mg/kg orally, 2% acacia, time c (30 min pre, 4 h and 24 h postischemia), control 2.6 ± 0.3, only 7 rats because of toxicity): 0.9 ± 0.4 | Damage Score, Striatum ([2]; 50 mg/kg orally, 2% acacia, time c (30 min pre, 4 h and 24 h postischemia), control 1.9 ± 0.4, only 7 rats because of toxicity): 1.5 ± 0.5

CN(C)CCc1cc(C(C)(C)C)c(O)c(C(C)(C)C)c1.Cl [4-[2-(dimethylamino)ethyl]-2,6-bis(1,1-dimethylethyl)phenol hydrochloride]
toxicity of higher doses (footnote ++) ([4]; permanent occlusion, saline): higher doses were toxic in this model | Infarct Volume ([4]; permanent occlusion, 10/5 mg/kg i.v. (per hour), saline, time c, control 154 ± 11): 161 ± 17 (mm)^3 | Infarct Volume ([4]; temporary occlusion, 20/5 mg/kg i.v. (per hour), saline, time d, control 84.7 ± 6.4): 77.6 ± 5.5 (mm)^3 | Damage Score, Hippocampus [1, 9]: 1.6 ± 0.3 | Damage Score, Hippocampus ([1]; 50 mg/kg orally, water, time a (15 min pre, 4 h and 24 h postischemia), control 3.0 ± 0.0): 0.8 ± 0.4 | Damage Score, Hippocampus [1, 10]: 0.2 ± 0.2 | Damage Score, Hippocampus [1, 11]: 0.2 ± 0.2 | Damage Score, Striatum [2, 9]: 0.9 ± 0.3 | Damage Score, Striatum ([2]; 50 mg/kg orally, water, time a (15 min pre, 4 h and 24 h postischemia), control 2.8 ± 0.2): 0.3 ± 0.2 | Damage Score, Striatum [2, 10]: 0.0 ± 0.0 | Damage Score, Striatum [2, 11]: 0.1 ± 0.0

CN(C)CCc1cc(C(C)(C)C)c(O)c(C(C)(C)C)c1 [4-[2-(dimethylamino)ethyl]-2,6-bis(1,1-dimethylethyl)phenol]
Damage Score, Hippocampus [1, 10]: 0.0 ± 0.0 | Damage Score, Striatum [2, 10]: 0.0 ± 0.0

CNCCc1cc(C(C)(C)C)c(O)c(C(C)(C)C)c1.Cl [4-[2-(methylamino)ethyl]-2,6-bis(1,1-dimethylethyl)phenol hydrochloride]
hypothermia (footnote +++) ([4]; dose of 50/10 i.v., permanent occlusion): severe hypothermia | Infarct Volume ([4]; permanent occlusion, 30/5 mg/kg i.v. (per hour), saline, time c, control 129 ± 14): 130 ± 16 (mm)^3 | inhibition in vivo at 25 mg/kg [3, 12]: 72.2%

CNCCc1ccc(O)c(C(C)(C)C)c1.Cl [4-[2-(methylamino)ethyl]-2-(1,1-dimethylethyl)phenol hydrochloride]
Damage Score, Hippocampus [1, 13]: 2.78 ± 0.12 | Damage Score, Striatum [2, 14]: 1.62 ± 0.35 | inhibition in vivo at 25 mg/kg [3, 12]: 76.6%

CCN(C)Cc1cc(C(C)(C)C)c(O)c(C(C)(C)C)c1 [4-[(N-ethyl-N-methylamino)methyl]-2,6-bis(1,1-dimethylethyl)phenol methanesulfonate]
Damage Score, Hippocampus [1, 15]: 1.1 ± 0.5 | Damage Score, Striatum [2, 16]: 1.1 ± 0.4 | inhibition in vivo at 25 mg/kg [3, 7]: 26%

CCN(CC)Cc1cc(C(C)(C)C)c(O)c(C(C)(C)C)c1.Cl [4-[(diethylamino)methyl]-2,6-bis(1,1-dimethylethyl)phenol hydrochloride]
Damage Score, Hippocampus [1, 5]: 2.0 ± 0.5 | Damage Score, Striatum [2, 6]: 1.7 ± 0.6

CN(C)Cc1cc(C(C)(C)C)c(O)c(C(C)(C)C)c1 [4-[(dimethylamino)methyl]-2,6-bis(1,1-dimethylethyl)phenol methanesulfonate]
Infarct Volume ([4]; temporary occlusion, 30/5 mg/kg i.v. (per hour), saline, time d (15 min before clamp removal, then 24 h), control 97 ± 10): 69 ± 9 (mm)^3 | Damage Score, Hippocampus [1, 15]: 0.9 ± 0.3 | Damage Score, Striatum [2, 16]: 0.8 ± 0.3

CCNCc1cc(C(C)(C)C)c(O)c(C(C)(C)C)c1 [4-[(ethylamino)methyl]-2,6-bis(1,1-dimethylethyl)phenol nitrate]
Damage Score, Hippocampus ([1]; 50 mg/kg orally, 2% acacia, time c (30 min pre, 4 h and 24 h postischemia), control 2.90 ± 0.04): 1.81 ± 0.36 | Damage Score, Striatum ([2]; 50 mg/kg orally, 2% acacia, time c (30 min pre, 4 h and 24 h postischemia), control 2.30 ± 0.32): 1.26 ± 0.40

CC(C)NCc1cc(C(C)(C)C)c(O)c(C(C)(C)C)c1 [4-[(isopropylamino)methyl]-2,6-bis(1,1-dimethylethyl)-phenol hydrochloride]
inhibition in vivo at 25 mg/kg [3, 7]: 4.9%

CCCNCc1cc(C(C)(C)C)c(O)c(C(C)(C)C)c1.Cl [4-[(n-propylamino)methyl]-2,6-bis(1,1-dimethylethyl)phenol hydrochloride]
Damage Score, Hippocampus ([1]; 50 mg/kg orally, distilled water, time c (30 min pre, 4 h and 24 h postischemia), control 2.96 ± 0.03): 1.48 ± 0.34 | Damage Score, Striatum ([2]; 50 mg/kg orally, distilled water, time c (30 min pre, 4 h and 24 h postischemia), control 2.53 ± 0.22): 1.05 ± 0.33

CC(C)(C)NCc1cc(C(C)(C)C)c(O)c(C(C)(C)C)c1.Cl [4-{[(1,1-dimethylethyl)amino]methyl}-2,6-bis(1,1dimethylethyl)phenol hydrochloride]
Damage Score, Hippocampus [1, 13]: 1.72 ± 0.43 | Damage Score, Striatum [2, 14]: 0.75 ± 0.35 | inhibition in vivo at 25 mg/kg [3, 7]: 3.9%

CN(Cc1cc(C(C)(C)C)c(O)c(C(C)(C)C)c1)Cc1cc(C(C)(C)C)c(O)c(C(C)(C)C)c1.Cl [4-{[N-methyl-N-(4-hydroxy-3,5-bis(1,1-dimethylethyl)benzyl)amino]methyl}-2,6-bis(1,1-dimethylethyl)phenol hydrochloride]
Damage Score, Hippocampus [1, 10]: 2.9 ± 0.1 | Damage Score, Striatum [2, 10]: 1.8 ± 0.4

CN(Cc1cc(C(C)(C)C)c(O)c(C(C)(C)C)c1)Cc1cc(C(C)(C)C)c(O)c(C(C)(C)C)c1 [4-{[N-methyl-N-(4-hydroxy-3,5-bis(1,1-dimethylethyl)benzyl)amino]methyl}-2,6-bis(1,1-dimethylethyl)phenol]
Damage Score, Hippocampus [1, 10]: 2.9 ± 0.2 | Damage Score, Striatum [2, 10]: 2.4 ± 0.4 | inhibition in vivo at 50 mg/kg [3, 8]: 77%

CN(C)C(=O)c1cc(C(C)(C)C)c(O)c(C(C)(C)C)c1 [N,N-dimethyl-3,5-bis(1,1-dimethylethyl)-4-hydroxybenzamide]
inhibition in vivo at 50 mg/kg [3, 8]: 64.4%

CC(C)(C)c1cc(C(=O)Nc2ccccc2Cl)cc(C(C)(C)C)c1O [N-2-chlorophenyl-3,5-bis(1,1-dimethylethyl)-4-hydroxy-benzamide]
inhibition in vivo at 50 mg/kg [3, 8]: 8.7%
